# According to patent US20220220128A1, “HETEROCYCLIC COMPOUNDS AS KINASE INHIBITORS, COMPOSITIONS COMPRISING THE HETEROCYCLIC COMPOUND, AND METHODS OF USE THEREOF” (JS Innopharm (Shanghai) Ltd, priority 2019, published 2022):
# How the values were obtained:
# human RET kinase = biological target: T1, human RET kinase (Homo sapiens, UniProt P07949); experiment: RET Kinase Assay (LanthaScreen TR-FRET enzymatic assay); format: biochemical; conditions: 7 nM RET, 23 μM ATP
# T1 construct: purchased Carna 08-159
# T1 sequence (P07949 29-1114): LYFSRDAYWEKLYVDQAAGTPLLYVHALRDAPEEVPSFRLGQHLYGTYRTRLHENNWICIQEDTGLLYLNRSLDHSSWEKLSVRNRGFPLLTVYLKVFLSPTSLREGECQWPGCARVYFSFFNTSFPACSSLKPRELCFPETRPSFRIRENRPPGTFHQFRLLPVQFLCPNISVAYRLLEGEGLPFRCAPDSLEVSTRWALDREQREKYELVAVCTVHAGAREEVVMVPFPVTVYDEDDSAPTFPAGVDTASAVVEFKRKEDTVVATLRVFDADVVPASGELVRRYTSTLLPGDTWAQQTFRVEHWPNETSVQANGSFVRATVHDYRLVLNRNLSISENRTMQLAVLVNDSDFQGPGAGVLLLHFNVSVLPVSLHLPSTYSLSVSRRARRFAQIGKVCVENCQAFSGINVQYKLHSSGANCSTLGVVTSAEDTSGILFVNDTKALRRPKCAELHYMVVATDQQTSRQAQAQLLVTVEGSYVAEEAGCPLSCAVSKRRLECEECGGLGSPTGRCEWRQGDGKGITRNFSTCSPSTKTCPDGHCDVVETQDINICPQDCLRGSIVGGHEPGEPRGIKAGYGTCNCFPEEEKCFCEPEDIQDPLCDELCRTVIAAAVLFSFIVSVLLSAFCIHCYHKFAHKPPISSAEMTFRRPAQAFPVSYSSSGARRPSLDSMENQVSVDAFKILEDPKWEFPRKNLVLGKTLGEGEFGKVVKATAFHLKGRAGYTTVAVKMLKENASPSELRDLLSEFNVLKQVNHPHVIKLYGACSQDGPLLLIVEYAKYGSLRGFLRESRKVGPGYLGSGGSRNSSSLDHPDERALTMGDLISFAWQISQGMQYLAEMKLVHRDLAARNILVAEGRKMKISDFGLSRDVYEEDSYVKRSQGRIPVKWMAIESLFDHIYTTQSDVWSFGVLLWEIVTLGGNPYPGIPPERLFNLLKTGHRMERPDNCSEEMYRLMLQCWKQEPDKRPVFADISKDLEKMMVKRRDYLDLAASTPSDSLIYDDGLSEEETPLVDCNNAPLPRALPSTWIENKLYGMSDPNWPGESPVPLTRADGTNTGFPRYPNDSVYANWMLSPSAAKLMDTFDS
# Method in brief: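 Human RET (7 nM) preincubated 15 min with compound in 50 mM HEPES pH 7.5, 0.0015% Brij-35, then reacted with 3 μM FAM-P2 peptide and 23 μM ATP for 1 h at 28° C.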
# BAF3-KIF5B-RET cells = biological target: T2, BAF3-KIF5B-RET cells (Homo sapiens, UniProt P07949); experiment: BAF3-KIF5B-RET Cell proliferation assay (CellTiter-Glo, 72 hours); format: cell-based; conditions: growth inhibition, read-out: BA/F3-KIF5B-RET Cellular activity
# T2 construct: fused on or other part: P33176 (Kinesin-1 heavy chain)
# T2 sequence (P07949 whole entry, change not shown, the tested form may be a part): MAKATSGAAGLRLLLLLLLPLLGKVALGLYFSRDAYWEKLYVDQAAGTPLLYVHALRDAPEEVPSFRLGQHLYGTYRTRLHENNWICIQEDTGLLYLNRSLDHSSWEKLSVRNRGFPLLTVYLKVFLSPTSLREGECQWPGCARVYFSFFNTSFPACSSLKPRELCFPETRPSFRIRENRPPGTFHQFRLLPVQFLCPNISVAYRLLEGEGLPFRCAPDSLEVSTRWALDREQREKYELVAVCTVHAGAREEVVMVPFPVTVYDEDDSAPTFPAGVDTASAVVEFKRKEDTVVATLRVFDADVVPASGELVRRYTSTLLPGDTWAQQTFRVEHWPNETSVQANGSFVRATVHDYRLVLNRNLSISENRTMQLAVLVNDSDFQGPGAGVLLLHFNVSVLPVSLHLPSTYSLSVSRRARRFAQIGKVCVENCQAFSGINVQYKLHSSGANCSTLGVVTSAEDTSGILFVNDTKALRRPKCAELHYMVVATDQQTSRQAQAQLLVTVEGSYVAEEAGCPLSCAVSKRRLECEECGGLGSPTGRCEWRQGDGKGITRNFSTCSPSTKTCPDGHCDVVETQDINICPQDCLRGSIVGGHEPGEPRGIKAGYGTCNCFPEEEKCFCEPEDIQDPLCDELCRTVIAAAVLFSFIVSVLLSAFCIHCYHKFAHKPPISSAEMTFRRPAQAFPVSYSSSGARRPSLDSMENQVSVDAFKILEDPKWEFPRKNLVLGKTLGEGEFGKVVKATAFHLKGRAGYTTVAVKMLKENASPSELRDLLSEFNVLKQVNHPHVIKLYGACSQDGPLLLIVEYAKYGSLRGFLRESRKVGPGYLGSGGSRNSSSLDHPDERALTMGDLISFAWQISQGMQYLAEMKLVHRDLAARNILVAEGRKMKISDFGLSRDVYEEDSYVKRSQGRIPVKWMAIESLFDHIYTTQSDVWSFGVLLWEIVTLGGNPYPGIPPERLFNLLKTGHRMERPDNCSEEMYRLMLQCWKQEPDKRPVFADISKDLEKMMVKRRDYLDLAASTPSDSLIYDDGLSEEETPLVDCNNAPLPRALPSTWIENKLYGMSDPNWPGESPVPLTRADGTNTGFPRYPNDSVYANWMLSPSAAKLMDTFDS
# Method: Compounds disclosed herein were tested for the inhibition of RET by a cancer cell proliferation assay commonly known as CellTiter-Glo assay. In this assay, a complete media was prepared by adding 10% fetal bovine serum to RPMI-1640 medium (Life technology) for BAF3-FIF5B-RET cells. BAF3-KIF5B-RET cells were added to each of 88 wells of a 96 well plate at a seeding density of 2,000 cells/well/95 μL. The cells were allowed to attach to the plate by incubating at 37° C. for 24 hours. The compound was dissolved in DMSO (SIGMA). A solution of test compound was prepared in complete media by serial dilution to obtain the following concentrations: 20 μM, 6.67 μM, 2.22 μM, 0.74 μM, 0.25 μM, 0.082 μM, 0.027 μM, 0.0091 μM and 0.0030 μM. The test compound solution (5 μL) was added to each of 80 cell-containing wells. The final concentrations of the compound were following: 1 μM, 0.33 μM, 0.11 μM, 0.037 μM, 0.012 μM, 0.0041 μM, 0.0014 μM, 0.00046 μM and 0.00015 μM. The final concentration of DMSO is 0.1%. To the 8 remaining cell-containing wells, only complete media (containing 0.1% DMSO) was added to form a control group in order to measure maximal proliferation. To the remaining 8 empty wells, complete media was added to for a vehicle control group in order to measure background. The plates were incubated at 37° C. for 72 hours. 50 μl of CellTiter-Glo® Reagent was added to each well. Mix contents for 2 minutes on an orbital shaker to induce cell lysis. Incubate at room temperature for 10 minutes to stabilize luminescent signal. Record luminescence on Paradigm. Cell viability (CV %) was calculated relative to vehicle (DMSO) treated control wells. The IC50 was calculated using GraphPad Prism.
IC50 (human RET kinase) [nM],GI50 (BAF3-KIF5B-RET cells) [nM],SMILES
≤ 10,≤ 10,"COc1ccnc(C(=O)N[C@]2(C)C[C@H]3CN(c4cnc(-c5cc(-c6cnn(C)c6)cn6ncc(C#N)c56)cn4)C[C@H]3C2)c1 [Example 149, N-((3aR,5s,6aS)-2-(5-(3-cyano-6-(1-methyl-1H-pyrazol-4-yl)pyrazolo[1,5-a]pyridin-4-yl)pyrazin-2-yl)-5-methyloctahydrocyclopenta[c]pyrrol-5-yl)-4-methoxypicolinamide]"
50 to 100,> 100,"COc1ccc(C(C)N2C[C@H]3CN(c4cnc(-c5cc(OCC(C)(C)O)cn6ncc(C#N)c56)cn4)C[C@H]3C2)cn1 (stereo partly drawn) [Example 176, 6-(2-hydroxy-2-methylpropoxy)-4-(5-((3aR,6aS)-5-(1-(6-methoxypyridin-3-yl)ethyl)hexahydropyrrolo[3,4-c]pyrrol-2(1H)-yl)pyrazin-2-yl)pyrazolo[1,5-a]pyridine-3-carbonitrile]"
10 to 50,10 to 50,"COc1ccc(C(=O)N[C@@H]2C[C@@H]3CN(c4ccc(-c5cc(OCC(C)(C)O)cn6ncc(C#N)c56)cn4)C[C@@H]3C2)cn1 [Example 159, N-((3aR,5r,6aS)-2-(5-(3-cyano-6-(2-hydroxy-2-methylpropoxy)pyrazolo[1,5-a]pyridin-4-yl)pyridin-2-yl)octahydrocyclopenta[c]pyrrol-5-yl)-6-methoxynicotinamide]"
≤ 10,10 to 50,"Cn1cc(-c2cc(-c3cnc(N4C[C@@H]5C[C@](C)(NC(=O)c6ncccc6Cl)C[C@@H]5C4)cn3)c3c(C#N)cnn3c2)cn1 [Example 199, 3-chloro-N-((3aR,5r,6aS)-2-(5-(3-cyano-6-(1-methyl-1H-pyrazol-4-yl)pyrazolo[1,5-a]pyridin-4-yl)pyrazin-2-yl)-5-methyloctahydrocyclopenta[c]pyrrol-5-yl)picolinamide]"
≤ 10,10 to 50,"COc1ccc(C(=O)N2[C@@H]3CC[C@H]2[C@H]2CN(c4ccc(-c5cc(OCC(C)(C)O)cn6ncc(C#N)c56)cn4)C[C@H]23)cn1 [Example 174, 6-(2-hydroxy-2-methylpropoxy)-4-(6-((3aR,4S,7R,7aS)-8-(6-methoxynicotinoyl)hexahydro-1H-4,7-epiminoisoindol-2(3H)-yl)pyridin-3-yl)pyrazolo[1,5-a]pyridine-3-carbonitrile]"
50 to 100,> 100,"COc1ccc(C(=O)N[C@@H]2C[C@@H]3CN(c4cnc(-c5cc(OCC(C)(C)O)cn6ncc(C#N)c56)cn4)C[C@@H]3C2)cn1 [Example 110, N-((3aR,5r,6aS)-2-(5-(3-cyano-6-(2-hydroxy-2-methylpropoxy)pyrazolo[1,5-a]pyridin-4-yl)pyrazin-2-yl)octahydrocyclopenta[c]pyrrol-5-yl)-6-methoxynicotinamide]"
≤ 10,10 to 50,"Cn1cc(-c2cc(-c3cnc(N4C5CC6CC4CC(N)(C6)C5)cn3)c3c(C#N)cnn3c2)cn1 [Example 108, 4-(5-((1R,3S,5s,7s)-5-amino-2-azaadamantan-2-yl)pyrazin-2-yl)-6-(1-methyl-1H-pyrazol-4-yl)pyrazolo[1,5-a]pyridine-3-carbonitrile]"
≤ 10,10 to 50,"CC(C)(O)COc1cc(-c2ccc(N3C[C@@H]4C[C@](C)(NC(=O)c5ncccc5Cl)C[C@@H]4C3)nc2)c2c(C#N)cnn2c1 [Example 115, 3-chloro-N-((3aR,5r,6aS)-2-(5-(3-cyano-6-(2-hydroxy-2-methylpropoxy)pyrazolo[1,5-a]pyridin-4-yl)pyridin-2-yl)-5-methyloctahydrocyclopenta[c]pyrrol-5-yl)picolinamide]"
≤ 10,≤ 10,"CC(C)(O)COc1cc(-c2cnc(N3C[C@@H]4C[C@@](C)(NC(=O)c5c(F)cccc5Cl)C[C@@H]4C3)cn2)c2c(C#N)cnn2c1 [Example 144, 2-chloro-N-((3aR,5s,6aS)-2-(5-(3-cyano-6-(2-hydroxy-2-methylpropoxy)pyrazolo[1,5-a]pyridin-4-yl)pyrazin-2-yl)-5-methyloctahydrocyclopenta[c]pyrrol-5-yl)-6-fluorobenzainide]"
≤ 10,≤ 10,"Cn1cc(-c2cc(-c3cnc(N4C5CC6CC4CC(NC(=O)c4ncccc4Cl)(C6)C5)cn3)c3c(C#N)cnn3c2)cn1 [Example 112, 3-chloro-N-((1R,3S,5s,7s)-2-(5-(3-cyano-6-(1-methyl-1H-pyrazol-4-yl)pyrazolo[1,5-a]pyridin-4-yl)pyrazin-2-yl)-2-azaadamantan-5-yl)picolinamide]"
≤ 10,10 to 50,"CCOc1cc(-c2cnc(N3C4CC5CC3CC(C(=O)Nc3ccc(OC)nc3)(C5)C4)cn2)c2c(C#N)cnn2c1 [Example 170, (1R,3S,5s,7s)-2-(5-(3-cyano-6-ethoxypyrazolo[1,5-a]pyridin-4-yl)pyrazin-2-yl)-N-(6-methoxypyridin-3-yl)-2-azaadamantane-5-carboxamide]"
10 to 50,> 100,"CCOc1cc(-c2cnc(N3C4CC5CC3CC(N)(C5)C4)cn2)c2c(C#N)cnn2c1 [Example 163, 4-(5-((1R,3S,5s,7s)-5-amino-2-azaadamantan-2-yl)pyrazin-2-yl)-6-ethoxypyrazolo[1,5-a]pyridine-3-carbonitrile]"
≤ 10,> 100,"CCOc1cc(-c2cnc(N3C4CC5CC3CC(NC=O)(C5)C4)cn2)c2c(C#N)cnn2c1 [Example 161, N-((1R,3S,5s,7s)-2-(5-(3-cyano-6-ethoxypyrazolo[1,5-a]pyridin-4-yl)pyrazin-2-yl)-2-azaadamantan-5-yl)formamide]"
≤ 10,50 to 100,"CCOc1cc(-c2cnc(N3C4CC5CC3CC(NC(=O)c3ccc(OC)nc3)(C5)C4)cn2)c2c(C#N)cnn2c1 [Example 167, N-((1R,3S,5s,7s)-2-(5-(3-cyano-6-cthoxypyrazolo[1,5-a]pyridin-4-yl)pyrazin-2-yl)-2-azaadamantan-5-yl)-6-methoxynicotinamide]"
10 to 50,> 100,"CC(C)(O)COc1cc(-c2cnc(N3C4CC5CC3CC(O)(C5)C4)cn2)c2c(C#N)cnn2c1 [Example 157, 4-(5-((1R,3S,5s,7s)-5-hydroxy-2-azaadamantan-2-yl)pyrazin-2-yl)-6-(2-hydroxy-2-methylpropoxy)pyrazolo[1,5-a]pyridine-3-carbonitrile]"
≤ 10,≤ 10,"COc1cccc(C(=O)NC[C@@H]2[C@H]3CN(c4ccc(-c5cc(-c6cnn(C)c6)cn6ncc(C#N)c56)cn4)C[C@@H]23)n1 [Example 195, N-(((1R,5S,6s)-3-(5-(3-cyano-6-(1-methyl-1H-pyrazol-4-yl)pyrazolo[1,5-a]pyridin-4-yl)pyridin-2-yl)-3-azabicyclo[3.1.0]hexan-6-yl)methyl)-6-methoxypicolinamide]"
≤ 10,50 to 100,"Cn1cc(-c2cc(-c3ccc(N4C[C@@H]5[C@@H](CNC(=O)c6ccnc(C(F)(F)F)c6)[C@@H]5C4)nc3)c3c(C#N)cnn3c2)cn1 [Example 196, N-(((1R,5S,6s)-3-(5-(3-cyano-6-(1-methyl-1H-pyrazol-4-yl)pyrazolo[1,5-a]pyridin-4-yl)pyridin-2-yl)-3-azabicyclo[3.1.0]hexan-6-yl)methyl)-2-(trifluoromethyl)isonicotinamide]"
≤ 10,≤ 10,"Cn1cc(-c2cc(-c3cnc(N4C5CC6CC4CC(NC(=O)OC(C)(C)C)(C6)C5)cn3)c3c(C#N)cnn3c2)cn1 [Example 109, tert-butyl ((1R,3S,5s,7s)-2-(5-(3-cyano-6-(1-methyl-1H-pyrazol-4-yl)pyrazolo[1,5-a]pyridin-4-yl)pyrazin-2-yl)-2-azaadamantan-5-yl)carbamate]"
≤ 10,≤ 10,"COc1ccnc(C(=O)NC[C@@H]2[C@H]3CN(c4ccc(-c5cc(-c6cnn(C)c6)cn6ncc(C#N)c56)cn4)C[C@@H]23)c1 [Example 193, N-(((1R,5S,6s)-3-(5-(3-cyano-6-(1-methyl-1H-pyrazol-4-yl)pyrazolo[1,5-a]pyridin-4-yl)pyridin-2-yl)-3-azabicyclo[3.1.0]hexan-6-yl)methyl)-4-methoxypicolinamide]"
≤ 10,10 to 50,"COc1cc(C(=O)NC[C@@H]2[C@H]3CN(c4ccc(-c5cc(-c6cnn(C)c6)cn6ncc(C#N)c56)cn4)C[C@@H]23)ccn1 [Example 194, N-(((1R,5S,6s)-3-(5-(3-cyano-6-(1-methyl-1H-pyrazol-4-yl)pyrazolo[1,5-a]pyridin-4-yl)pyridin-2-yl)-3-azabicyclo[3.1.0]hexan-6-yl)methyl)-2-methoxyisonicotinamide]"
